Test results published in paper PMC7283271, “ADP binding by the Culex quinquefasciatus mosquito D7 salivary protein enhances blood feeding on mammals” (Nature Communications, 2020).

Experiments:
Format in all cases: binding
[1] = target: CxD7L1 (Culex quinquefasciatus, UniProt A0A1S4K3K8); assay: ITC; parameters: gene D7L1; mature protein, C-terminal 6x-His, HEK293
[2] = target: T1, CxD7L2 (Culex quinquefasciatus, UniProt B0X6Z1); assay: ITC
T1 construct: gene D7L2; full-length mature protein, C-terminal 6x-His, HEK293
T1 sequence (B0X6Z1 21-313 limits assumed): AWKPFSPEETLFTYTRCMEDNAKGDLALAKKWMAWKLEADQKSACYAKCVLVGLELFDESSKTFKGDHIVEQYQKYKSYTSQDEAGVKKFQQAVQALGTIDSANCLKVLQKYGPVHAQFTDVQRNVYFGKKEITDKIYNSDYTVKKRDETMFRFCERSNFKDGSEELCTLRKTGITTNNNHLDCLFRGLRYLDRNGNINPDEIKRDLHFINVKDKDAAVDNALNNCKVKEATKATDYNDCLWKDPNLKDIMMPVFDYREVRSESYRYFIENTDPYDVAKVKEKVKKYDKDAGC

[3] = target: T1, CxD7L2; assay: ITC (also with protein saturated with serotonin)

CxD7L1, sequence (A0A1S4K3K8 17-311 limits assumed): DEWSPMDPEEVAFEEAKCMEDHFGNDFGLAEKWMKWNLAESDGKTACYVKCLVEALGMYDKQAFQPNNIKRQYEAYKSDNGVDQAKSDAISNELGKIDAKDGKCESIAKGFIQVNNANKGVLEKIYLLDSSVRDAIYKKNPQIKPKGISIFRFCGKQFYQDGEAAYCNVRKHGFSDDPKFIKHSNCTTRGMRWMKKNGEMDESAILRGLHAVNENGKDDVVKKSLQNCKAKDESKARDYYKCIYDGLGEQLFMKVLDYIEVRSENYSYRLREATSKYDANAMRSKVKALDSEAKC

Nc1ncnc2c1ncn2[C@@H]1O[C@H](COP(=O)(O)O)[C@@H](O)[C@H]1O [AMP] was tested, and the Kd [1] was 77.5 nM.

Compound Nc1ncnc2c1ncn2[C@@H]1O[C@H](COP(=O)(O)OP(=O)(O)OP(=O)(O)O)[C@@H](O)[C@H]1O [ATP] has a Kd [1] of 30.8 nM.

In the case of NCCc1c[nH]cn1 [Histamine], the Kd [2] is reported as 383 nM.

For CCCCC/C=C\C\C=C/C=C/C=C/[C@@H](SC[C@H](NC(=O)CC[C@H](N)C(=O)O)C(=O)NCC(=O)O)[C@@H](O)CCCC(=O)O [LTC4], the Kd [2] was 152 nM.

CCCCC/C=C\C\C=C/C=C/C=C/[C@@H](SC[C@H](N)C(=O)NCC(=O)O)[C@@H](O)CCCC(=O)O [LTD4] was tested, and the Kd [3] was 156 nM.

CCCCC/C=C\C\C=C/C=C/C=C/[C@@H](SC[C@H](N)C(=O)O)[C@@H](O)CCCC(=O)O [LTE4] gave a Kd [2] of 159 nM.

For NCCc1c[nH]c2ccc(O)cc12 [Serotonin], the Kd [2] was 7.46 nM.
